PubChem BioAssay AID330 (DTP/NCI, 2004)
Several values for one entry are separate records, joined by “and”; a condition that tells them apart may be missing. Identical values can stand only once. Toxic doses and inconclusive results are not listed.

Test system: P388 leukemia ip, CD2F1 mice, survival T/C
Test: NCI In Vivo Anticancer Drug Screen. Data for tumor model P388 Leukemia (intraperitoneal) in CD2F1 (CDF1) mice
Conditions: endpoint: median survival time, higher = longer survival
How it was run: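 Mice carrying the transplanted tumor received test compound or vehicle. Survival was recorded in each group, and the value is the treated-group measurement divided by that of the vehicle-treated control group.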

[1] = dose: 100.0 mg/kg/injection, schedule: Q04DX003 (ip), vehicle: saline with Tween-80
[2] = dose: 200.0 mg/kg/injection, schedule: Q04DX003 (ip), vehicle: saline with Tween-80
[3] = dose: 200.0 mg/kg/injection, schedule: Q01DX009 (ip), vehicle: saline with Tween-80
[4] = dose: 50.0 mg/kg/injection, schedule: Q04DX003 (ip), vehicle: saline with Tween-80
[5] = dose: 50.0 mg/kg/injection, schedule: Q01DX005 (ip), vehicle: saline with Tween-80
[6] = dose: 100.0 mg/kg/injection, schedule: Q01DX005 (ip), vehicle: saline with Tween-80
[7] = dose: 200.0 mg/kg/injection, schedule: Q01DX005 (ip), vehicle: saline with Tween-80
[8] = dose: 50.0 mg/kg/injection, schedule: Q01DX009 (ip), vehicle: Klucel (hydroxypropylcellulose) (HPC)
[9] = dose: 100.0 mg/kg/injection, schedule: Q01DX009 (ip), vehicle: Klucel (hydroxypropylcellulose) (HPC)

For Cc1ccc(Cl)c([N+](=O)[O-])c1N, the T/C [1] was 104 % of control and the T/C [2] was 104 % of control.
In the case of CCOC(=O)/C=C(\C(=O)OCC)N(O)C(=O)CN1C(=O)c2ccccc2C1=O, the T/C (dose: 50.0 mg/kg/injection, schedule: Q01DX001 (ip), vehicle: saline with Tween-80) is reported as 106 % of control, the T/C (dose: 100.0 mg/kg/injection, schedule: Q01DX001 (ip), vehicle: saline with Tween-80) is reported as 105 % of control and the T/C (dose: 200.0 mg/kg/injection, schedule: Q01DX001 (ip), vehicle: saline with Tween-80) is reported as 98 % of control. The T/C (dose: 400.0 mg/kg/injection, schedule: Q01DX001 (ip), vehicle: saline with Tween-80) was 93 % of control.
For CCCN1COC(OCC)C(C)(C)C1 (stereo unspecified), the T/C (dose: 25.0 mg/kg/injection, schedule: Q01DX009 (ip), vehicle: saline with Tween-80) was 110 % of control and the T/C [3] was 93 % of control.
In the case of Cc1c2nc(N)nc-2ccc2[nH]c(N)nc12, the T/C (dose: 0.5 mg/kg/injection, schedule: Q01DX009 (ip), vehicle: Klucel (hydroxypropylcellulose) (HPC)) is reported as 102 % of control, the T/C (dose: 1.0 mg/kg/injection, schedule: Q01DX009 (ip), vehicle: Klucel (hydroxypropylcellulose) (HPC)) is reported as 108 % of control and the T/C (dose: 2.0 mg/kg/injection, schedule: Q01DX009 (ip), vehicle: Klucel (hydroxypropylcellulose) (HPC)) is reported as 108 % of control. For the same compound, the T/C (dose: 4.0 mg/kg/injection, schedule: Q01DX009 (ip), vehicle: Klucel (hydroxypropylcellulose) (HPC)) was 102 % of control.
For C=C(C(=O)OC)C(O)CC (stereo unspecified), the T/C (dose: 50.0 mg/kg/injection, schedule: Q01DX005 (ip), vehicle: saline) was 91 % of control, the T/C (dose: 100.0 mg/kg/injection, schedule: Q01DX005 (ip), vehicle: saline) was 107 % of control and the T/C (dose: 200.0 mg/kg/injection, schedule: Q01DX005 (ip), vehicle: saline) was 100 % of control.
With NC(C(=O)O)C(=O)c1ccccc1 (stereo unspecified) the T/C (dose: 100.0 mg/kg/injection, schedule: Q01DX009 (ip), vehicle: saline with Tween-80) was 100 % of control, the T/C [3] was 100 % of control and the T/C (dose: 400.0 mg/kg/injection, schedule: Q01DX009 (ip), vehicle: saline with Tween-80) was 118 % of control.
In the case of Cc1coc2c1C(O)C1(C)C(C)CCC(O)C1C2=O (stereo unspecified), the T/C (dose: 7.5 mg/kg/injection, schedule: Q01DX009 (ip), vehicle: saline with Tween-80) is reported as 101 % of control, the T/C (dose: 15.0 mg/kg/injection, schedule: Q01DX009 (ip), vehicle: saline with Tween-80) is reported as 101 % of control and the T/C (dose: 30.0 mg/kg/injection, schedule: Q01DX009 (ip), vehicle: saline with Tween-80) is reported as 101 % of control. For the same compound, the T/C (dose: 60.0 mg/kg/injection, schedule: Q01DX009 (ip), vehicle: saline with Tween-80) was 102 % of control.
Cc1ccnc(NS(=O)(=O)c2ccc(N=Nc3nc4[nH]c(N)nc(=S)c4[nH]3)cc2)n1 was tested, and the T/C (dose: 0.2 mg/kg/injection, schedule: Q01DX009 (ip), vehicle: saline with Tween-80) was 124 % of control and the T/C (dose: 6.25 mg/kg/injection, schedule: Q01DX009 (ip), vehicle: saline with Tween-80) was 106 % of control.
CNC(=O)Nc1c(C)cccc1C was tested, and the T/C (dose: 25.0 mg/kg/injection, schedule: Q04DX003 (ip), vehicle: saline with Tween-80) was 104 % of control, the T/C [4] was 100 % of control and the T/C [1] was 105 % of control. The T/C [2] was 107 % of control.
With O=C(CCCCC(=O)Nc1ccc2[nH]c3ccccc3c(=O)c2c1)Nc1ccc2[nH]c3ccccc3c(=O)c2c1 the T/C [5] was 104 % of control, the T/C [6] was 105 % of control and the T/C [7] was 100 % of control.
In the case of COc1c(O)c2c(c3cc(C(=O)N4CCc5c4c(O)c(OC)c4[nH]c(C(=O)N6CC7CC78C6=CC(=O)c6[nH]cc(C)c68)cc54)[nH]c13)CCN2C(N)=O (stereo unspecified), the T/C (dose: 0.01 mg/kg/injection, schedule: Q04DX003 (ip), vehicle: other) is reported as 190 % of control, the T/C (dose: 0.03 mg/kg/injection, schedule: Q04DX003 (ip), vehicle: other) is reported as 190 % of control and 211 % of control and the T/C (dose: 0.04 mg/kg/injection, schedule: Q04DX003 (ip), vehicle: DMSO) is reported as 150 % of control. The T/C (dose: 0.1 mg/kg/injection, schedule: Q04DX003 (ip), vehicle: DMSO) was 166 % of control, the T/C (dose: 0.1 mg/kg/injection, schedule: Q04DX003 (ip), vehicle: other) was 118 % of control and 98 % of control and the T/C (dose: 2.6 micrograms/kg/injection, schedule: Q01DX009 (ip), vehicle: other) was 120 % of control. The T/C (dose: 4.0 micrograms/kg/injection, schedule: Q01DX009 (ip), vehicle: other) was 119 % of control, the T/C (dose: 10.0 micrograms/kg/injection, schedule: Q04DX003 (ip), vehicle: other) was 163 % of control and the T/C (dose: 13.0 micrograms/kg/injection, schedule: Q01DX009 (ip), vehicle: DMSO) was 94 % of control. The T/C (dose: 13.0 micrograms/kg/injection, schedule: Q04DX003 (ip), vehicle: other) was 124 % of control, the T/C (dose: 20.0 micrograms/kg/injection, schedule: Q04DX003 (ip), vehicle: other) was 120 % of control and the T/C (dose: 21.6 micrograms/kg/injection, schedule: Q01DX009 (ip), vehicle: DMSO) was 95 % of control. The T/C (dose: 30.0 micrograms/kg/injection, schedule: Q04DX003 (ip), vehicle: other) was 181 % of control, the T/C (dose: 36.0 micrograms/kg/injection, schedule: Q01DX009 (ip), vehicle: DMSO) was 98 % of control and the T/C (dose: 60.0 micrograms/kg/injection, schedule: Q01DX009 (ip), vehicle: DMSO) was 93 % of control. The T/C (dose: 64.8 micrograms/kg/injection, schedule: Q04DX003 (ip), vehicle: DMSO) was 153 % of control, the T/C (dose: 64.8 micrograms/kg/injection, schedule: Q04DX003 (ip), vehicle: saline) was 156 % of control and the T/C (dose: 88.5 micrograms/kg/injection, schedule: Q01DX001 (ip), vehicle: other) was 153 % of control. For the same compound, the T/C (dose: 100.0 micrograms/kg/injection, schedule: Q01DX009 (ip), vehicle: DMSO) was 95 % of control, the T/C (dose: 100.0 micrograms/kg/injection, schedule: Q04DX003 (ip), vehicle: other) was 93 % of control and the T/C (dose: 108.0 micrograms/kg/injection, schedule: Q04DX003 (ip), vehicle: DMSO) was 161 % of control. The T/C (dose: 133.0 micrograms/kg/injection, schedule: Q01DX001 (ip), vehicle: other) was 155 % of control, the T/C (dose: 180.0 micrograms/kg/injection, schedule: Q04DX003 (ip), vehicle: DMSO) was 170 % of control and the T/C (dose: 200.0 micrograms/kg/injection, schedule: Q01DX001 (ip), vehicle: other) was 162 % of control. The T/C (dose: 300.0 micrograms/kg/injection, schedule: Q04DX003 (ip), vehicle: saline) was 105 % of control and the T/C (dose: 450.0 micrograms/kg/injection, schedule: Q01DX001 (ip), vehicle: other) was 157 % of control.
For CCCC[As](CCCC)SCC1OC(OC(C)=O)C(OC(C)=O)C(OC(C)=O)C1OC(C)=O (stereo unspecified), the T/C [8] was 113 % of control and the T/C [9] was 92 % of control.
With CC1(C)N=C(N)N=C(N)N1c1ccc(CCCCc2ccc(S(=O)(=O)F)cc2)cc1 the T/C (dose: 12.0 mg/kg/injection, schedule: Q01DX009 (ip), vehicle: saline sonified) was 152 % of control, the T/C (dose: 18.0 mg/kg/injection, schedule: Q01DX009 (ip), vehicle: saline sonified) was 152 % of control and the T/C (dose: 50.0 mg/kg/injection, schedule: Q01DX009 (ip), vehicle: saline with Tween-80) was 95 % of control. For the same compound, the T/C [4] was 100 % of control.
For O=[N+]([O-])c1cccc(NC(c2ccc(N(CCCl)CCCl)cc2)P(=O)(Oc2ccccc2)Oc2ccccc2)c1 (stereo unspecified), the T/C [8] was 95 % of control, the T/C [9] was 98 % of control and the T/C (dose: 200.0 mg/kg/injection, schedule: Q01DX009 (ip), vehicle: Klucel (hydroxypropylcellulose) (HPC)) was 95 % of control.
In the case of CC(=O)OC1C2C(OC3OC(=O)/C(=C\C=C4\CCCC(C)(C)C4)C32)O[C@H]1OC(C)=O (stereo partly specified), the T/C (dose: 6.25 mg/kg/injection, schedule: Q01DX005 (ip), vehicle: Klucel (hydroxypropylcellulose) (HPC)) is reported as 105 % of control, the T/C (dose: 12.5 mg/kg/injection, schedule: Q01DX005 (ip), vehicle: Klucel (hydroxypropylcellulose) (HPC)) is reported as 113 % of control and the T/C (dose: 25.0 mg/kg/injection, schedule: Q01DX005 (ip), vehicle: Klucel (hydroxypropylcellulose) (HPC)) is reported as 86 % of control.
With CC(=O)N/N=C(/C(=O)O)c1ccccc1 the T/C (dose: 100.0 mg/kg/injection, schedule: Q04DX002 (ip), vehicle: Klucel (hydroxypropylcellulose) (HPC)) was 98 % of control, the T/C (dose: 200.0 mg/kg/injection, schedule: Q04DX002 (ip), vehicle: Klucel (hydroxypropylcellulose) (HPC)) was 99 % of control and the T/C (dose: 400.0 mg/kg/injection, schedule: Q04DX002 (ip), vehicle: Klucel (hydroxypropylcellulose) (HPC)) was 95 % of control.
In the case of O=C1C=CC2(C=C1)N=C(c1ccccc1)C=C2c1ccccc1, the T/C [5] is reported as 101 % of control, the T/C [6] is reported as 97 % of control and the T/C [7] is reported as 93 % of control.
With CCB1OC2C(COC(C)=O)OC(OC(C)=O)C2O1 (stereo unspecified) the T/C [5] was 101 % of control, the T/C [6] was 110 % of control and the T/C [7] was 113 % of control.
With CCN(CC)CCSCCN(CC)CC the T/C (dose: 25.0 mg/kg/injection, schedule: Q01DX005 (ip), vehicle: saline with Tween-80) was 98 % of control, the T/C [5] was 110 % of control and the T/C [6] was 98 % of control.
